Several values for one entry are separate records, joined by “and”; a condition that tells them apart may be missing. Equal entries are not always repeated. Entries after “also recorded” stand apart in the source; their conditions may differ.
What was measured:
[1] = test system: SEQ ID NO. 12 (GLUT4); assay: Euglycemic insulin clamp: GLUT4 in plasma membrane-enriched (PM) fraction of vastus lateralis biopsies, quantitative immunoblot; assay type: in vivo, human
Protocol: (§1) Muscle biopsies: Percutaneous needle biopsies of vastus lateralis were performed using a 5 mm Bergstrom-Stille needle under suction after an overnight fast and two hours of quiet recumbency as previously described (6). A 50-100 mg specimen was quickly blotted and the entire sample was frozen in liquid nitrogen for later analysis.
(§2) Fractionation of muscle microsamples: We have made minor modifications of our previously described techniques (10). Briefly, 50 mg muscle is removed from the −80° C. freezer and slowly thawed on ice. The muscle is homogenized in 1.0 ml Buffer A (250 mM sucrose, 20 mM HEPES, pH 7.4) with 5 μL protease cocktail (Cocktail Kit Pierce #78410) added. Initial homogenization is 30 seconds with a Pellet Pestle Motor (Kontes). The homogenate is passed through a BD Falcon 100 μm Cell Strainer and after adding 100 μL Buffer B (3M KCl, 250 roM sodium pyrophosphate), is spun at 227,000×g for 30 minutes. The pellet is resuspended in 1.0 mL of Buffer A with protease cocktail using the Pellet Pestle Motor again for 30 seconds. This sample is then spun at 12,000×g for 20 minutes. […]
(§3) Immunoblot technique: Immunoblotting was performed essentially as previously described (11). […] Image analysis was performed on scanned film digital files using Quantity One version 4.5.2 software from Bio-Rad (Hercules, Calif.). […]

[2] = Euglycemic insulin clamp: plasma insulin concentration and glucose infusion rate
Protocol: Euglycemic insulin clamp studies: Insulin infusion studies were performed essentially as previously described (8; 9) except no isotope or somatostatin were used in this study. Mter an overnight fast, subjects were maintained in quiet recumbency for two hours to minimize the effects of muscular activity on protein subcellular localization. After a baseline muscle biopsy, a constant insulin infusion was performed at 40 mU/m2/min for three hours. A second muscle biopsy was performed on the contralateral side in the last 10 minutes of the insulin infusion period.

[3] = test system: SEQ ID NO. 12 (GLUT4); details: cited from earlier work
[4] = test system: SEQ ID NO. 12 (GLUT4) translocation in L6 myoblasts; assay: Insulin-stimulated translocation of GLUT4 to PM fraction in L6 myoblasts and its inhibition by PI3-K inhibitor; assay type: cell-based, rat; details: L6 cells, 10 ng/mL insulin
Protocol: (§4) Fractionation of L6 muscle cells: L6 cells were obtained from ATCC and cultured in D.MEM medium with 10% fetal bovine serum with subculturing every three to five days. For the studies described below, cells were grown to near confluence in 100 mm dishes. Cells were harvested in 1 mL homogenization Buffer A containing 5 μL protease inhibitors using a rubber policeman. The remainder of the technique is the same as muscle microsamples. The yield of protein averaged 199±14 μg for PM and 419±22 μg for LDM. Immunoblot technique: Immunoblotting was performed essentially as previously described (11). In general, 10-20 μg protein from muscle homogenate or fractions was separated on a 10% polyacrylamide gel using the Laemmli system (12), transferred to a nitrocellulose membrane, subjected to blocking with 2.5% non-fat dry milk in phosphate-buffered saline, incubated with a validated dilution of one of the anti-GLUT antibodies above including 1.25% milk, and developed with the enhanced chemiluminescence reagent and X-ray film. Image analysis was performed on scanned film digital files using Quantity One version 4.5.2 software from Bio-Rad (Hercules, Calif.). The specificity of the antibodies employed for GLUT1 SEQ ID NO. […] After harvesting and fractionating the cells, samples from the fractions were subjected to immunoblotting and digital images were quantified by image analysis software. […]

[5] = test system: SEQ ID NO. 10 (GLUT1); assay: Euglycemic insulin clamp: GLUT1 in plasma membrane-enriched (PM) fraction of vastus lateralis biopsies, immunoblot; assay type: in vivo, human
Protocol: as §1, §2, §3

[6] = test system: SEQ ID NO. 16 (GLUT12); assay: Euglycemic insulin clamp: GLUT12 in plasma membrane-enriched (PM) fraction of vastus lateralis biopsies, quantitative immunoblot; assay type: in vivo, human
Protocol: as §1
Fractionation of muscle microsamples: We have made minor modifications of our previously described techniques (10). Briefly, 50 mg muscle is removed from the −80° C. freezer and slowly thawed on ice. The muscle is homogenized in 1.0 ml Buffer A (250 mM sucrose, 20 mM HEPES, pH 7.4) with 5 μL protease cocktail (Cocktail Kit Pierce #78410) added. Initial homogenization is 30 seconds with a Pellet Pestle Motor (Kontes). The homogenate is passed through a BD Falcon 100 μm Cell Strainer and after adding 100 μL Buffer B (3M KCl, 250 roM sodium pyrophosphate), is spun at 227,000×g for 30 minutes. The pellet is resuspended in 1.0 mL of Buffer A with protease cocktail using the Pellet Pestle Motor again for 30 seconds. This sample is then spun at 12,000×g for 20 minutes. The pellet is resuspended in 200 μl, Boston Bioproducts Triton Lysis Buffer with Protease Inhibitor (BP-117) using the Pellet Pestle Motor. This sample is designated PM, the plasma membrane-enriched fraction. The supernate is removed and spun at 227,000×g for 30 minutes. The resulting pellet is also resuspended in 200 μL Boston. Bioproducts Triton Lysis Buffer, and is designated LDM, the low density microsomes fraction. PM protein content averaged 139±7 μg and LDM contained 265±8 μg protein. In studies performed on human control muscle sample fractions, the PM fraction contained 80% of the immunological signal for the plasma membrane marker Na/K+ ATPase α-I (05-369 from Millipore). LDM contained 67% of the golgi marker mannosidase II (AB3712 from Chemicon).
as §3

[7] = test system: SEQ ID NO. 16 (GLUT12) translocation in L6 myoblasts; assay: Insulin-stimulated translocation of GLUT12 to PM fraction in L6 myoblasts and its inhibition by PI3-K inhibitor; assay type: cell-based, rat; details: L6 cells, 10 ng/mL insulin
Protocol: as §4

Q: What does the source list for “insulin: insulin given as constant euglycemic infusion at 40 mU/m2/min, or 10 ng/mL on L6 cells”?
A: GLUT4 distribution in the plasma membrane-enriched (PM) fractions ([1]; end of 3 h insulin infusion at 40 mU/m2/min, six normal volunteers, baseline 13%): 42%; Change of GLUT4 content of the PM fraction in response to insulin infusion ([1]; insulin infusion vs baseline, each subject): more than doubled; also recorded: at least doubled; Plasma insulin concentration ([2]; infusion of insulin at 40 mU/m2/min, baseline 28±7 pmol/L): 343 ± 21 pmol/L; Mean glucose infusion rate to maintain blood glucose of 85 mg/dL ([2]; steady state period of the insulin infusion): 8.87 mg/kg·min; Increase in GLUT4 in the muscle plasma membrane fractions (Zierath) ([3]; after euglycemic insulin infusion, same infusion rate, literature ref 26): 60%; Increase in sarcolemma-associated GLUT4 by confocal quantitative immunohistochemistry (Kelley) ([3]; control subjects, literature ref 24): 85%; Increase in GLUT4 in muscle plasma membrane-enriched fractions (Garvey) ([3]; ten-fold higher insulin infusion, control subjects, literature ref 25): 2.8 fold; Translocation of GLUT4 to the PM fraction by insulin [4]: caused translocation; also recorded: moved from the fraction to the PM fraction; Change of GLUT1 distribution/signal in LDM and PM fractions after insulin ([5]; insulin infusion vs baseline): did not change; also recorded: no change; GLUT1 content in the PM fractions ([5]; post-insulin infusion, subjects 1-5, baseline 78±7%): 79±9% and 79%; GLUT12 distribution in the plasma membrane-enriched (PM) fractions ([6]; end of 3 h insulin infusion at 40 mU/m2/min, six normal volunteers, baseline 17%): 38%; Change of GLUT12 content of the PM fraction in response to insulin infusion ([6]; insulin infusion vs baseline): more than doubled in four of the six subjects; Minimum increase of GLUT12 content of the PM fraction ([6]; insulin infusion vs baseline, minimum response among six subjects): ≥ 60%; Translocation of GLUT12 to the PM fraction by insulin [7]: translocated; also recorded: caused translocation; also recorded: moved from the fraction to the PM fraction
